Measurements as given in patent US20260207626A1, “SYNTHETIC TRITERPENOIDS AND COMPOSITIONS THEREOF IN WEIGHT MANAGEMENT, SKELETAL MUSCLE FUNCTION, AND APPETITE SUPPRESSION” (The Board of Regents of the University of Texas System, priority 2022, published 2026).
“Also recorded” adds a separate entry of the source.

What was measured:
NF-κB = NF-κB luciferase reporter assay in L6-GLUT4myc myotubes; type: cell-based, rat; details: 500 nM CDDO-EA 1 hr then 100 ng/ml LPS 6 hours
Description: To determine the effects of CDDO-EA on LPS-induced NF-κB transcriptional activity in L6-GLUT4myc myotubes, a luciferase reporter under the control of a promoter containing NF-κB transcription binding sites was used.
Luciferase assay: L6-GLUT4myc myoblasts were transfected with 2 μg of phosphorylated NF-κB-MetLuc2-Reporter plasmid as described previously. After transfection, cells were plated onto a 24-well dish (1.5×10^5 cells/well) and pre-treated with CDDO-EA for 1 h. Myotubes were then stimulated with LPS 100 ng/ml (E. coli 0111: B4, Sigma Aldrich) for 6 h, and luciferase activity was measured using the Ready-To-Glow™ NF-κB Secreted Luciferase Reporter System as described.

p65 NF-κB = assay: NF-κB p65 nuclear translocation (immunofluorescence and subcellular fractionation) in L6-GLUT4myc myotubes; type: cell-based, rat
Description: NF-κB is bound to IκB-α in the cytoplasm. Upon activation of the IKK/NF-κB/IκB pathway, IκB is degraded, freeing NF-κB to translocate into the nucleus and activate the transcription of pro-inflammatory mediators. To visualize the localization of NF-κB, immunofluorescence and confocal microscopy studies were performed in L6-GLUT4myc myo-tubes pre-treated with CDDO-EA for 1 h and then exposed to LPS for 1 h. The untreated muscle cells show a basal-level expression of p65 NF-κB in the nucleus (FIG. 14A).
For subcellular fractionation, differentiated L6-GLUT4myc myotubes were pre-treated with CDDO-EA 500 nM for 1 h follow by LPS 100 ng/ml (E. coli O111: B4, Sigma Aldrich) treatment for 1 h, and the nuclear and cytosolic fractions were isolated using the Nuclear Extraction Kit (Panomics) according to the manufacturer's instructions. The extracted fractions were then analyzed by Western blotting as described.
Immunofluorescence microscopy: L6-GLUT4myc myoblasts (4×10^4 cells/ml, 0.2 ml/well) were plated onto Nunc Lab-TekII 8-chamber slides (Thermo Fisher Scientific) and differentiated for 7 days. Myotubes were pre-treated with CDDO-EA 500 nM for 1 h followed by LPS 100 ng/ml (E. coli O111: B4, Sigma Aldrich) treatment for 1 h. […]

## CCNC(=O)[C@]12CCC(C)(C)C[C@H]1C1C(=O)C=C3[C@@]4(C)C=C(C#N)C(=O)C(C)(C)[C@@H]4CC[C@@]3(C)[C@]1(C)CC2 (stereo partly drawn) [CDDO-EA, (4aS,6aR,6bS,8aR,12aS,14bS)-11-cyano-N-ethyl-2,2,6a,6b,9,9,12a-heptamethyl-10,14-dioxo-1,3,4,5,6,6a,6b, 7,8,8a,9,10,12a, 14,14a, 14b-hexadecahydropicene-4a (2H)-carboxamide]
NF-κB
  LPS-induced NF-κB transcriptional (luciferase) activity: prevented the promoter activity of NF-κB; also recorded: significantly inhibited the LPS-induced NF-κB activity; also recorded: blocks NF-κB transcriptional activity
p65 NF-κB; 500 nM CDDO-EA 1 hr then 100 ng/ml LPS 1 hr
  LPS-induced p65 NF-κB nuclear translocation: reduces LPS-induced p65 NF-κB nuclear staining; also recorded: decreased both cytoplasmic and nuclear localization of p65 NF-κB; also recorded: prevented NF-κB translocation to the nucleus
p65 NF-κB; CDDO-EA alone, no LPS
  NF-κB activation: had no effect on NF-κB activation
